Target: T1, VEGFR-2 (Homo sapiens, UniProt P35968)
T1 construct: gene KDR
Experiment: in vitro VEGFR-2 inhibition, Human VEGFR-2 ELISA kit
Assay type: biochemical

T1 sequence (P35968 20-1356): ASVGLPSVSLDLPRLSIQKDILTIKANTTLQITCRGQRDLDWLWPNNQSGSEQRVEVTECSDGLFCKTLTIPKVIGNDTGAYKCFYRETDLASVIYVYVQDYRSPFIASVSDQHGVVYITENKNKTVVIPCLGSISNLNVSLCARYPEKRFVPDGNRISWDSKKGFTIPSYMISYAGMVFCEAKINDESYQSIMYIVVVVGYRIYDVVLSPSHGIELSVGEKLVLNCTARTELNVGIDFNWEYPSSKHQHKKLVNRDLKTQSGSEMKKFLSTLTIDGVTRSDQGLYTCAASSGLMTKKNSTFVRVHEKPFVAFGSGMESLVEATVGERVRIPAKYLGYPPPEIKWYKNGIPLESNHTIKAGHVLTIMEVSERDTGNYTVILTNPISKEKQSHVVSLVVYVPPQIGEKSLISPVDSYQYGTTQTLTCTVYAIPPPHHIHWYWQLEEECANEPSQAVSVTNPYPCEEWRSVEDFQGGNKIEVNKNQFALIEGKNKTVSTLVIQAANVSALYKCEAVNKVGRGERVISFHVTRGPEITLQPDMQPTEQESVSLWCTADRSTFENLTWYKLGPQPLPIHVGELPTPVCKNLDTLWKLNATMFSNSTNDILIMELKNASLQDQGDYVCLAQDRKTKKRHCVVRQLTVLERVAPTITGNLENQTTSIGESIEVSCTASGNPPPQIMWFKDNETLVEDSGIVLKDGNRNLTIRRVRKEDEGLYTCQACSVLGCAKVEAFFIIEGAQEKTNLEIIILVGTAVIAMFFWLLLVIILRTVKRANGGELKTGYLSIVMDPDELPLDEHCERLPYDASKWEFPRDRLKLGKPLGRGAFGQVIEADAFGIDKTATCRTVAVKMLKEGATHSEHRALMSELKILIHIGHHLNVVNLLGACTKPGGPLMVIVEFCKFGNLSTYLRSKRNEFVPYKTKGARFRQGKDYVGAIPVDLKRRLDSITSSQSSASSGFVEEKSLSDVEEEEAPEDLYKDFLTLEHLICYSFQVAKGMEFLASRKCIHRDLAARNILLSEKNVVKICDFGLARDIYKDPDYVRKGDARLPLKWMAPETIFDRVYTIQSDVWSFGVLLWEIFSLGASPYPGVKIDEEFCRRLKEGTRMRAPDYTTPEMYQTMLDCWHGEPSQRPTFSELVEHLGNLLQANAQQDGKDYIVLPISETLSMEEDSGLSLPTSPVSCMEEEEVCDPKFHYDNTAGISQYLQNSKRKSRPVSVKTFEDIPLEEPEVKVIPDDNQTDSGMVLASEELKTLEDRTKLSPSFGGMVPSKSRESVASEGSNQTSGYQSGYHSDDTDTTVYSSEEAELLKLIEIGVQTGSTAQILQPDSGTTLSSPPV

C/C(=N\NC(=O)c1ccc(NC(=O)C(F)(F)F)cc1)c1cccc(NC(=O)c2cccnc2)c1 [compound 10, (E)-N-(3-(1-(2-(4-(2,2,2-Trifluoroacetamido)benzoyl)hydrazono)ethyl)phenyl)nicotinamide]
IC50: 65.8 nM

— publication PMC9697799, “(E)-N-(3-(1-(2-(4-(2,2,2-Trifluoroacetamido)benzoyl)hydrazono)ethyl)phenyl)nicotinamide: A Novel Pyridine Derivative for Inhibiting Vascular Endothelial Growth Factor Receptor-2: Synthesis, Computational, and Anticancer Studies” (Molecules, 2022)
